Like-named read-outs stand apart in the source and are kept apart here.

Experimental findings from PMC8272913 (ACS chemical neuroscience, 2019) are described below.

One assay concerns the target rat SERT (rSERT) (Rattus norvegicus, UniProt P31652). In words: Inhibition of [3H]citalopram binding to rSERT from rat brain tissue. The settings on record: for Ki: read-out: Ki, binding affinity for rSERT; for fold decrease in rSERT binding affinity relative to paroxetine: vs paroxetine.
The target of assay [1] is T1, hSERT-A169D (Homo sapiens, UniProt P31645, A169D). The assay is classed as cell-based.
In assay [2] the target is T2, hSERT WT (Homo sapiens, UniProt P31645). The assay is classed as cell-based. The settings on record: read-out: Ki (nM) 5-HT Transport WT.
Assay [3] addresses T2, hSERT WT. The settings on record: read-out: Ki (nM) RTI-55 Binding WT.
Another assay concerns the target hSERT (Homo sapiens, UniProt P31645). It counts as binding.
The target in assay [4] is T1, hSERT-A169D. The assay is classed as binding.

rat SERT (rSERT), sequence (P31652 whole entry): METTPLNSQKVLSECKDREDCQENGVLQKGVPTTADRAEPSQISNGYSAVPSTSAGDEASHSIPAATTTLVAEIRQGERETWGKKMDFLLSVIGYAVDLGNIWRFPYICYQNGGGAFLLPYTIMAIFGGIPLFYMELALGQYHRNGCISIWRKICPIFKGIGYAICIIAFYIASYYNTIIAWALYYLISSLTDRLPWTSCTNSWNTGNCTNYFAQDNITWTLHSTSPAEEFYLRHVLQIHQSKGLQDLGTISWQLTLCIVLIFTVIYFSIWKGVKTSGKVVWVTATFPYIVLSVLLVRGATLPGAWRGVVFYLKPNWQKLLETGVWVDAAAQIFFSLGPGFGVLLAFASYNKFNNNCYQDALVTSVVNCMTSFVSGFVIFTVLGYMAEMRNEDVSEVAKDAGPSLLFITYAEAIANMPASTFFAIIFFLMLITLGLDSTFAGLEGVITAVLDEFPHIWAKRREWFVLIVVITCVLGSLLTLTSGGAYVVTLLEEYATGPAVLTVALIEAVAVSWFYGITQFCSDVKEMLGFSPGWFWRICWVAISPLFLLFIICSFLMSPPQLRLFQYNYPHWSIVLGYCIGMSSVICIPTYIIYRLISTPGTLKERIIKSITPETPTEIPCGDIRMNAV

For the compound `Fc1ccc(C2CCN(Cc3ccc(Br)cc3)CC2COc2ccc3c(c2)OCO3)cc1` (centres unmarked) [compound 3], on rat SERT (rSERT), the Ki – broadly, the equilibrium dissociation constant of an inhibitor or competing ligand from its target – was 204 nM.
Take `CN1CC[C@@H](c2ccc(F)cc2)[C@H](COc2ccc3c(c2)OCO3)C1` [compound 14]: on rat SERT (rSERT), the Ki was found to be 2.95 nM and the “fold decrease in rSERT binding affinity relative to paroxetine” value turned out to be 9.5 fold.
Turning to `Brc1ccc([C@@H]2CCNC[C@H]2COc2ccc3c(c2)OCO3)cc1` [compound 13, 4-bromoparoxetine], on hSERT-A169D [1] (A169D versus WT), the “5-HT Transport Sensitivity toward the A169D mutation” value stood at 2.8. For the same compound, the inhibition constant (Ki) on hSERT-A169D [1] (read-out: Ki (nM) 5-HT Transport A169D, hSERT A169D) worked out at 6.37 ± 0.74 nM; at hSERT WT [2] it was 2.3 ± 0.27 nM; at hSERT WT [3], 1.07 ± 0.3 nM; on hSERT (read-out: Ki, binding affinity), 0.32 ± 0.028 nM; at rat SERT (rSERT), 4.9 nM; at hSERT-A169D [4] (read-out: Ki (nM) RTI-55 Binding A169D, hSERT A169D) it was 1.72 ± 0.39 nM. For the same compound, at hSERT, the “fold reduction in binding affinity as compared to paroxetine” value is ~ 4 fold. The “fold decrease in rSERT binding affinity relative to paroxetine” value on rat SERT (rSERT) is recorded as 16 fold. Also, the “RTI-55 Binding Sensitivity toward the A169D mutation” value at hSERT-A169D [4] (A169D versus WT) is 1.6.
On to `CCCCCCN1CCC(c2ccc(F)cc2)C(COc2ccc3c(c2)OCO3)C1` (centres unmarked) [compound 1], for which, at rat SERT (rSERT), the Ki was found to be 395 nM.
Same read-out and setting: in the case of `CCCN1CCC(c2ccc(F)cc2)C(COc2ccc3c(c2)OCO3)C1` (centres unmarked) [compound 2] it was 98 nM; in that of `c1ccc([C@@H]2CCNC[C@H]2COc2ccc3c(c2)OCO3)cc1` [compound 15, desfluoroparoxetine], 0.557 nM; in that of `O=C(Cc1ccc(Br)cc1)N1CCC(c2ccc(F)cc2)C(COc2ccc3c(c2)OCO3)C1` (centres unmarked) [compound 6], 3820 nM.
